Experimental data as given in ChEMBL document CHEMBL1121689, “A dopamine receptor model and its application in the design of a new class of rigid pyrrolo[2,3-g]isoquinoline antipsychotics” (1981).

Tests used:
[1] = tested on: Rattus norvegicus; assay: Dose required for producing 50% block of avoidance responding in rats after peroral administration; type: functional
[2] = tested on: Rattus norvegicus; assay: Dose required for producing 20% block of escape responding in rats after peroral administration; type: functional

SMILES	ABD50 [1]	EBD20 [2]
CCc1c(C)[nH]c2c1C(=O)[C@@H]1CN(C)CC[C@H]1C2.Cl	>6 mg/kg	
CCc1c(C)[nH]c2c1C(=O)[C@H]1CN(C)CC[C@@H]1C2.Cl	0.49 mg/kg	3.6 mg/kg
CCc1c(C)[nH]c2c1C(=O)C1CN(C)CCC1C2.Cl (racemic)	0.72 mg/kg	9.8 mg/kg
O=C(CCCN1CCC(O)(c2ccc(Cl)cc2)CC1)c1ccc(F)cc1 [HALOPERIDOL]	0.35 mg/kg	2.7 mg/kg
CCc1c(C)[nH]c2c1C(=O)C(CN1CCOCC1)CC2 (centres undefined) [MOLINDONE]	3.6 mg/kg	17.1 mg/kg
